{
  "source": "paper PMC8220418",
  "about": "“A fragment-based approach to assess the ligandability of ArgB, ArgC, ArgD and ArgF in the L-arginine biosynthetic pathway of Mycobacterium tuberculosis” (Computational and Structural Biotechnology Journal, 2021)",
  "data": [
    {"system": "M. tuberculosis ΔargB", "format": "cell-based, Mycobacterium tuberculosis", "values": [
      {"smiles": "NC(N)=NOCC[C@H](N)C(=O)O", "note": "[L-canavanine, reference compound]", "Inhibitory activity on growth with arginine present": "no inhibitory activity"},
      {"smiles": "O=c1cc[nH]c2c(C(F)(F)F)cccc12", "note": "[NMR446, 8-(trifluoromethyl)-1H-quinolin-4-one]", "Inhibitory activity on growth with arginine present": "no inhibitory activity"},
      {"smiles": "O=c1cc(C(F)(F)F)[nH]c2c(C(F)(F)F)cccc12", "note": "[NMR711, 2,8-bis(trifluoromethyl)-1H-quinolin-4-one]", "Inhibitory activity on growth with arginine present": "inhibitory"}
    ]}
  ]
}
